Reference: publication PMC6576746, “Rational discovery of dual-indication multi-target PDE/Kinase inhibitor for precision anti-cancer therapy using structural systems pharmacology” (PLoS Computational Biology, 2019)

How the values were obtained:
Test in all cases: biochemical
Parameters in all cases: DiscoverX KinomeScan competition binding assay across human kinases; per cent of control at 10 and 100 uM
[1] = molecular target: CDK9 (Homo sapiens, UniProt P50750); conditions: competition binding, % of control; read-out: Percent Control (100 uM Levosimendan)
Method in brief: (§1)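 Binding is expressed as %control, normalised between positive and negative control signals. The compound (levosimendan) was tested at 10 μM and 100 μM in the DiscoverX KinomeScan competition binding format against human kinases.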

[2] = molecular target: CSNK1D (Homo sapiens, UniProt P48730); conditions: competition binding, % of control; read-out: Percent Control (100 uM Levosimendan)
Method in brief: as §1

[3] = molecular target: T1, DCAMKL1 (Homo sapiens, UniProt O15075); conditions: competition binding, % of control; read-out: Percent Control (100 uM Levosimendan)
T1 construct: gene DCLK1
Method in brief: as §1

[4] = molecular target: DYRK1A (Homo sapiens, UniProt Q13627); conditions: competition binding, % of control; read-out: Percent Control (100 uM Levosimendan)
Method in brief: as §1

[5] = molecular target: EGFR(G719C) (Homo sapiens, UniProt P00533, G719C); conditions: competition binding, % of control
Method in brief: as §1

[6] = molecular target: EGFR(G719S) (Homo sapiens, UniProt P00533, G719S); conditions: competition binding, % of control
Method in brief: as §1

[7] = molecular target: ERBB4 (Homo sapiens, UniProt Q15303); conditions: competition binding, % of control; read-out: Percent Control (100 uM Levosimendan)
Method in brief: as §1

[8] = molecular target: ERN1 (Homo sapiens, UniProt O75460); conditions: competition binding, % of control; read-out: Percent Control (100 uM Levosimendan)
Method in brief: as §1

[9] = molecular target: FLT1 (Homo sapiens, UniProt P17948); conditions: competition binding, % of control
Method in brief: as §1

[10] = molecular target: T2, JAK1(JH2domain-pseudokinase) (Homo sapiens, UniProt P23458); conditions: competition binding, % of control
T2 construct: JH2domain-pseudokinase
Method in brief: as §1

[11] = molecular target: T3, JNK2 (Homo sapiens, UniProt P45984); conditions: competition binding, % of control; read-out: Percent Control (100 uM Levosimendan)
T3 construct: gene MAPK9
Method in brief: as §1

[12] = molecular target: KIT-autoinhibited (Homo sapiens, UniProt P10721); conditions: competition binding, % of control
Method in brief: as §1

[13] = molecular target: MET(Y1235D) (Homo sapiens, UniProt P08581, Y1235D); conditions: competition binding, % of control; read-out: Percent Control (100 uM Levosimendan)
Method in brief: as §1

[14] = molecular target: T4, MLCK (Homo sapiens, UniProt Q32MK0); conditions: competition binding, % of control; read-out: Percent Control (100 uM Levosimendan)
T4 construct: gene MYLK3
Method in brief: as §1

[15] = molecular target: PIK3C2B (Homo sapiens, UniProt O00750); conditions: competition binding, % of control; read-out: Percent Control (100 uM Levosimendan)
Method in brief: as §1

[16] = molecular target: PIM2 (Homo sapiens, UniProt Q9P1W9); conditions: competition binding, % of control
Method in brief: as §1

[17] = molecular target: PIM3 (Homo sapiens, UniProt Q86V86); conditions: competition binding, % of control
Method in brief: as §1

[18] = molecular target: PRKCQ (Homo sapiens, UniProt Q04759); conditions: competition binding, % of control
Method in brief: as §1

[19] = read-out: Percent Control (10 uM Levosimendan)
[20] = read-out: Percent Control (100 uM Levosimendan)

Chain of PIM2 (Q9P1W9 whole entry): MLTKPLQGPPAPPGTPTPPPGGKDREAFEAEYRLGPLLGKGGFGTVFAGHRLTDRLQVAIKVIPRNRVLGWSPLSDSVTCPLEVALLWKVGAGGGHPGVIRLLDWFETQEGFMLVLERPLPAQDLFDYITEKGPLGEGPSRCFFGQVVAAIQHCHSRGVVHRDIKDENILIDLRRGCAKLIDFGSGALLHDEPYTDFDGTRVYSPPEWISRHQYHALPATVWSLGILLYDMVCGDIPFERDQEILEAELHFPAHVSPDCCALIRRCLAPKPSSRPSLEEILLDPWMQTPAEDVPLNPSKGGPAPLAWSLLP
T2 sequence (P23458 whole entry): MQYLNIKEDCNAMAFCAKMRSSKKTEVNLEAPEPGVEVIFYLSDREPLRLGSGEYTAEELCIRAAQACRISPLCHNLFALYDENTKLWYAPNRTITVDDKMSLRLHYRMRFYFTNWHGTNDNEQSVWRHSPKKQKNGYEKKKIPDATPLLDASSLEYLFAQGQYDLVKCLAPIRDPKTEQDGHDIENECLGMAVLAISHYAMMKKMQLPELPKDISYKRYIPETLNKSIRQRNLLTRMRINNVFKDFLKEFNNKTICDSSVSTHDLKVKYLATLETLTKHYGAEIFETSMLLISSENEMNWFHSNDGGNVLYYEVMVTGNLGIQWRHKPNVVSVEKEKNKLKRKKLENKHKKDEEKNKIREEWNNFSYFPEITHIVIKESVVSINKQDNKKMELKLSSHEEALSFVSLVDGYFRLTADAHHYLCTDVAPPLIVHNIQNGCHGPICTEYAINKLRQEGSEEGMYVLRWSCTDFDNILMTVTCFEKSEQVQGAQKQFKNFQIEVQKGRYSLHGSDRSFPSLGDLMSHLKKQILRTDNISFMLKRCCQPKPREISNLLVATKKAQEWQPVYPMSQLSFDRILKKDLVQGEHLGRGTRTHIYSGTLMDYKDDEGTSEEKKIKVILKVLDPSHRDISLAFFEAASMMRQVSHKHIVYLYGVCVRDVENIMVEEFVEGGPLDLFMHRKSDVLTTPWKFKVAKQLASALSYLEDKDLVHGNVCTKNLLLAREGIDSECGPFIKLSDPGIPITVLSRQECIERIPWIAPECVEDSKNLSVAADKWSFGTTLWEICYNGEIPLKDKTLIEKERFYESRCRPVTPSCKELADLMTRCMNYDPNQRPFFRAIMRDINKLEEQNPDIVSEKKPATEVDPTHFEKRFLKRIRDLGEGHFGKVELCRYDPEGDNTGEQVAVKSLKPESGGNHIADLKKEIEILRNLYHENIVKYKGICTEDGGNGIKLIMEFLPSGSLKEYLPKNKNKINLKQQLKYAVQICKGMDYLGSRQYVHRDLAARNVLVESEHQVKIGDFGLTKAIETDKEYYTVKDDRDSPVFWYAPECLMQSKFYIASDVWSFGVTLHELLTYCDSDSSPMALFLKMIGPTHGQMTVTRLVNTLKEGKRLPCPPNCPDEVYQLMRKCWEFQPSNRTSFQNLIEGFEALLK
Chain of EGFR(G719C) (P00533 whole entry G719C): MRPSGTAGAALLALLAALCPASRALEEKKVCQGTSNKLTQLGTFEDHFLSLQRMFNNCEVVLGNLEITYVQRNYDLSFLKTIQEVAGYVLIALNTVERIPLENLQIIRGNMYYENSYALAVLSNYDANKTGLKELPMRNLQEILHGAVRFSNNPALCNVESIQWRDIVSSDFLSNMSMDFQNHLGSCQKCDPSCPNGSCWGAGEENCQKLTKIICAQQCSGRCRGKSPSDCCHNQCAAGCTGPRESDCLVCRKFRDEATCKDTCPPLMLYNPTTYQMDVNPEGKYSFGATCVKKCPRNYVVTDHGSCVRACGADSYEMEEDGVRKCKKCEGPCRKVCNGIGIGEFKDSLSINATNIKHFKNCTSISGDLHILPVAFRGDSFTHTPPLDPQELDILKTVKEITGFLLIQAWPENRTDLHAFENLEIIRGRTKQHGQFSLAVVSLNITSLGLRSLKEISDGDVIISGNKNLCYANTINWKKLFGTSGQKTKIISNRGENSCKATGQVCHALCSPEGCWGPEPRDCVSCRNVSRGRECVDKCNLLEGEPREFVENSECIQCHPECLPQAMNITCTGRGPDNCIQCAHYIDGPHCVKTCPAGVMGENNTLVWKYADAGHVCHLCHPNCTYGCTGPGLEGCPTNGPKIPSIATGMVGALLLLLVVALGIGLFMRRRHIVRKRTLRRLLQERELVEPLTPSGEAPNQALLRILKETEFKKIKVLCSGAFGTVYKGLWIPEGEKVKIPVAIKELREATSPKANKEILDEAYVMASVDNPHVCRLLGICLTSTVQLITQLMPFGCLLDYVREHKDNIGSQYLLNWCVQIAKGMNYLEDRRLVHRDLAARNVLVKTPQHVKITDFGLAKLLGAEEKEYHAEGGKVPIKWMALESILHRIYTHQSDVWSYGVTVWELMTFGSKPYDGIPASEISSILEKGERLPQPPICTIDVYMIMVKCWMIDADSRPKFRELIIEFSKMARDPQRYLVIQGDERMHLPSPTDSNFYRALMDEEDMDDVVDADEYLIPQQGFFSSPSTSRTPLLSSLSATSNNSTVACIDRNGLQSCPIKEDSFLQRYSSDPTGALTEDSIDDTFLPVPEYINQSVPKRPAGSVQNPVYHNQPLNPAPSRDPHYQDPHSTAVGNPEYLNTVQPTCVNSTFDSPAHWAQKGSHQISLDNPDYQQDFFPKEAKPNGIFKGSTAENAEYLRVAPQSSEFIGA
Chain of FLT1 (P17948 whole entry): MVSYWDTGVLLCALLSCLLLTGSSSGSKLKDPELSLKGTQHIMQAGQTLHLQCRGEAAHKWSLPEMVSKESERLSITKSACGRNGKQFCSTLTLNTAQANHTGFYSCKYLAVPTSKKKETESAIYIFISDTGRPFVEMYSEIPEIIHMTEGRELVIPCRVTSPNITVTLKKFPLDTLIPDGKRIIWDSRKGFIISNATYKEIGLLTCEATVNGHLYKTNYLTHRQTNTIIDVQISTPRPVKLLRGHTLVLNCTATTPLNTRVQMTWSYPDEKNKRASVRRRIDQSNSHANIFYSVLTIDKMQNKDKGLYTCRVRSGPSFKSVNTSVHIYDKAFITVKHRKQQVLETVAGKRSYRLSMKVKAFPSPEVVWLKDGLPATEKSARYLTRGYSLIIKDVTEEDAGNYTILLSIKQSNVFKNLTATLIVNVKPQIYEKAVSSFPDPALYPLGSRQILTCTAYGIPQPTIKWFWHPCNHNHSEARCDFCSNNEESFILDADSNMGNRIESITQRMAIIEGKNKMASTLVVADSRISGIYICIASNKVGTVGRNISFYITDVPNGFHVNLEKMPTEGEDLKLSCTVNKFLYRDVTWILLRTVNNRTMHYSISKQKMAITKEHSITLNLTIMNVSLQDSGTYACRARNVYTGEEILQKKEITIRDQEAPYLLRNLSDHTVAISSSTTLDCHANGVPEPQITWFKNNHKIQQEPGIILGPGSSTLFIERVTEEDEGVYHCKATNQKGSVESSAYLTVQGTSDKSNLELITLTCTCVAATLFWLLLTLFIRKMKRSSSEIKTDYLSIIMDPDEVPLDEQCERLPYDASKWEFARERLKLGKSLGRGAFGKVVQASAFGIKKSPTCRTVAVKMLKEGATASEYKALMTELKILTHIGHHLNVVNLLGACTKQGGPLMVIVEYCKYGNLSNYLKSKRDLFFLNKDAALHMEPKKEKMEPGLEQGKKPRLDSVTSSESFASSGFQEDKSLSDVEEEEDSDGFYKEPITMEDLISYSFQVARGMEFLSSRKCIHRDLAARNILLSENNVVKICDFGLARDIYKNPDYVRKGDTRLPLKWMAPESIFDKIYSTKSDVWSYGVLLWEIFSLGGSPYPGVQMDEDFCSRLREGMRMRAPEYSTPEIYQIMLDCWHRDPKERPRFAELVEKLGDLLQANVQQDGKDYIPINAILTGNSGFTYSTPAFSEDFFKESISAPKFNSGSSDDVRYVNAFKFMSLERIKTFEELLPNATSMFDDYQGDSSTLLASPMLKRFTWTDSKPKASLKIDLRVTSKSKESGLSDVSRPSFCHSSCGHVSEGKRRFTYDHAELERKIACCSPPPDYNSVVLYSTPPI
Chain of PRKCQ (Q04759 whole entry): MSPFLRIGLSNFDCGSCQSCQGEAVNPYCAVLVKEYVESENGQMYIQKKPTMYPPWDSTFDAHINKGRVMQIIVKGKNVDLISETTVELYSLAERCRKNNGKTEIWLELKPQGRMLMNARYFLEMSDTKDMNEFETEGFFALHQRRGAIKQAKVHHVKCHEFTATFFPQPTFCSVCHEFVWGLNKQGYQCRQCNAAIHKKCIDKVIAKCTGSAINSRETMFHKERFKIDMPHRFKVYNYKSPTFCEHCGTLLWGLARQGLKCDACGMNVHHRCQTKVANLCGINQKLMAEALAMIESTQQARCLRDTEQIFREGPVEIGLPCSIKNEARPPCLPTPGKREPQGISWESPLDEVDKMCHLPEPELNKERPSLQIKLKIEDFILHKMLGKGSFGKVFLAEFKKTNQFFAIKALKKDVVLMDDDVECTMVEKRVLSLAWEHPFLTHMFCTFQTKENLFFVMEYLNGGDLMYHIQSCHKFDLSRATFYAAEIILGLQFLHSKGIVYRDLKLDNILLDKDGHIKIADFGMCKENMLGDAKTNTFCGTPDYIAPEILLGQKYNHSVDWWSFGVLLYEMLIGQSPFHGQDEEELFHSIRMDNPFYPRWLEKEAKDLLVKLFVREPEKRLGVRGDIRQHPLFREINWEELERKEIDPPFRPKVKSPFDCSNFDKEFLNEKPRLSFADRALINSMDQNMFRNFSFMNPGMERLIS

C[C@@H]1CC(=O)NN=C1c1ccc(NN=C(C#N)C#N)cc1 [levosimendan]
remaining binding at 100 µM [1]: 100% | remaining binding at 100 µM [2]: 84% | remaining binding at 100 µM [3]: 67% | remaining binding at 100 µM [4]: 89% | remaining binding at 10 µM [5, 19]: 49% | remaining binding at 100 µM [5, 20]: 10% | remaining binding at 10 µM [6, 19]: 79% | remaining binding at 100 µM [6, 20]: 41% | remaining binding at 100 µM [7]: 63% | remaining binding at 100 µM [8]: 79% | remaining binding at 10 µM [9, 19]: 98% | remaining binding at 100 µM [9, 20]: 44% | remaining binding at 10 µM [10, 19]: 30% | remaining binding at 100 µM [10, 20]: 7.2% | remaining binding at 100 µM [11]: 100% | remaining binding at 10 µM [12, 19]: 76% | remaining binding at 100 µM [12, 20]: 52% | remaining binding at 100 µM [13]: 57% | remaining binding at 100 µM [14]: 100% | remaining binding at 100 µM [15]: 90% | remaining binding at 10 µM [16, 19]: 84% | remaining binding at 100 µM [16, 20]: 20% | remaining binding at 10 µM [17, 19]: 75% | remaining binding at 100 µM [17, 20]: 17% | remaining binding at 10 µM [18, 19]: 5.2% | remaining binding at 100 µM [18, 20]: 36%
